Source: patent publication US20100008983A1 (priority 2008, published 2010)
Counter-ions that a name gives are not always drawn. Like-named read-outs stand apart in the source and are kept apart here.

Settings: stirring

C#CCN[C@@H]1CCc2ccccc21 [Rasagiline mesylate, R(+)-N-propargyl-1-aminoindan]
66.6 mg/g soluble,: Solubility (Observation: amount soluble, clear solution) (Ethanol, RT)
Not soluble: Solubility (Observation) (Gelucire 44/14 (Lauroyl macrogol-32 glyceride), 45-50° C.) | Solubility (Observation) (Labrafil M 1944 CS (polyoxyethylated glycolysed glycerides), 37° C.) | Solubility (Observation) (Labrafil M 1944 CS (polyoxyethylated glycolysed glycerides), RT) | Solubility (Observation) (Miglyol 810 (Caprylic/Capric Triglyceride), 37° C.) | Solubility (Observation) (Miglyol 810 (Caprylic/Capric Triglyceride), RT) | Solubility (Observation) (Soybean oil, 37° C.) | Solubility (Observation) (Soybean oil, RT)
25 mg/g soluble,: Solubility (Observation: amount soluble, clear solution) (Cremophor EL (polyoxyethylene castor oil derivative), RT) | Solubility (Observation: amount soluble, clear solution) (Polyethylene Glycol 400, RT) | Solubility (Observation: amount soluble, clear solution) (Propylene Glycol, RT) | Solubility (Observation: amount soluble, clear solution) (Transcutol (2-(2-ethoxyethoxy)ethanol), RT)
64 mg/g soluble,: Solubility (Observation: amount soluble, clear solution) (Capmul MCM (glyceryl mono- & dicaprate), RT)
10 mg/g soluble,: Solubility (Observation: amount soluble, clear solution) (Labrasol (Caprylocaproyl macrogol-8 glyceride), 37-40° C.) | Solubility (Observation: amount soluble, clear solution) (Tween 80 (polyoxyethylene sorbitan fatty acid esters), RT)
